Measurements reported in the supplement of paper PMC11451515.

What was measured:
Settings in all cases: 48 h
[1] = system: P12-Ichikawa; experiment: cell viability relative to DMSO control; higher = less cytotoxic
Summary of the method: (§1)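 Library compounds in DMSO were pin-dosed in an 11-point threefold series (47 μM to 0.79 nM) onto leukemia cells in 1536-well plates (5 μl). Plates held 500 cells/well of NOMO1 or SEM or 1000 cells/well of P12-Ichikawa, each adapted for at least four passages in each medium. Luminescence was read with CellTiter-Glo One after 48 h at 37°C. Viability means the per-plate percentage relative to DMSO wells, using cell-free wells as background.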

[2] = system: SEM cells; experiment: as above
Summary of the method: as §1

[3] = system: NOMO1; experiment: AUC of viability dose-response curve (% viability x log10 dose units); higher = less sensitive
Summary of the method: (§2)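 Leukemia cells adapted to each medium were seeded in 1536-well plates (500 or 1000 cells/well). They were dosed with library compounds in DMSO at 11 threefold doses, 47 μM to 0.79 nM, for 48 h at 37°C. CellTiter-Glo One luminescence was normalised per plate to DMSO and cell-free wells. Area under the curve was integrated by trapezoidal rule over log10 doses on a four-parameter log-logistic fit; curves exceeding full viability were scaled and curves failing quality control removed.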

[4] = system: P12-Ichikawa; experiment: as above
Summary of the method: as §2

[5] = system: SEM cells; experiment: as above
Summary of the method: as §2

[6] = system: NOMO1; experiment: cell viability relative to DMSO control; higher = less cytotoxic
Summary of the method: as §1

Nc1cccc(-c2cc3c(Oc4cccc(O)c4)ncnc3[nH]2)c1
cell viability [%]
Settings	HPLM + 10% dialyzed FBS	RPMI 5 mM glucose + 10% FBS	RPMI 5 mM glucose + 10% dialyzed FBS
[1], 0.000781 µM	124	–	–
[1], 0.00234 µM	121	–	–
[1], 0.00702 µM	123	–	–
[1], 0.0211 µM	114	–	–
[1], 0.0632 µM	122	–	–
[1], 0.19 µM	114	–	–
[1], 0.569 µM	117	–	–
[1], 1.71 µM	106	–	–
[1], 5.12 µM	105	–	–
[1], 15.4 µM	60.5	–	–
[1], 46.1 µM	15.1	–	–
[2], 0.000781 µM	–	70.7	69.1
[2], 0.00234 µM	–	122	123
[2], 0.00702 µM	–	132	132
[2], 0.0211 µM	–	143	125
[2], 0.0632 µM	–	145	131
[2], 0.19 µM	–	123	116
[2], 0.569 µM	–	132	133
[2], 1.71 µM	–	121	121
[2], 5.12 µM	–	88.8	80.4
[2], 15.4 µM	–	62.3	56
[2], 46.1 µM	–	9.75	13.4

AUC of viability dose-response curve
Settings	[3]	[4]	[5]
HPLM + 10% dialyzed FBS	445	423	414
RPMI 5 mM glucose + 10% FBS	463	431	415
RPMI 5 mM glucose + 10% dialyzed FBS	460	436	414

C=C1C[C@@]2(O)O[C@@]3(C[C@H]2C(C)C)[C@@H](C)CC[C@@H]13
cell viability [%]
Settings	[1]	[2]	[6]
HPLM + 10% dialyzed FBS, 0.000781 µM	110	90.3	120
HPLM + 10% dialyzed FBS, 0.00234 µM	119	85.5	94.8
HPLM + 10% dialyzed FBS, 0.00702 µM	112	68.4	122
HPLM + 10% dialyzed FBS, 0.0211 µM	129	109	133
HPLM + 10% dialyzed FBS, 0.0632 µM	117	105	121
HPLM + 10% dialyzed FBS, 0.19 µM	123	108	134
HPLM + 10% dialyzed FBS, 0.569 µM	122	23.6	114
HPLM + 10% dialyzed FBS, 1.71 µM	112	41	117
HPLM + 10% dialyzed FBS, 5.12 µM	117	100	134
HPLM + 10% dialyzed FBS, 15.4 µM	125	108	132
HPLM + 10% dialyzed FBS, 46.1 µM	118	95.1	111
RPMI 5 mM glucose + 10% FBS, 0.000781 µM	113	117	108
RPMI 5 mM glucose + 10% FBS, 0.00234 µM	127	109	114
RPMI 5 mM glucose + 10% FBS, 0.00702 µM	114	78.5	122
RPMI 5 mM glucose + 10% FBS, 0.0211 µM	126	125	126
RPMI 5 mM glucose + 10% FBS, 0.0632 µM	129	113	136
RPMI 5 mM glucose + 10% FBS, 0.19 µM	134	122	119
RPMI 5 mM glucose + 10% FBS, 0.569 µM	119	21.8	121
RPMI 5 mM glucose + 10% FBS, 1.71 µM	123	41.5	122
RPMI 5 mM glucose + 10% FBS, 5.12 µM	122	116	130
RPMI 5 mM glucose + 10% FBS, 15.4 µM	128	108	119
RPMI 5 mM glucose + 10% FBS, 46.1 µM	132	111	135
RPMI 5 mM glucose + 10% dialyzed FBS, 0.000781 µM	112	81.8	114
RPMI 5 mM glucose + 10% dialyzed FBS, 0.00234 µM	109	110	125
RPMI 5 mM glucose + 10% dialyzed FBS, 0.00702 µM	116	77.2	118
RPMI 5 mM glucose + 10% dialyzed FBS, 0.0211 µM	117	97.3	109
RPMI 5 mM glucose + 10% dialyzed FBS, 0.0632 µM	122	96	117
RPMI 5 mM glucose + 10% dialyzed FBS, 0.19 µM	135	104	122
RPMI 5 mM glucose + 10% dialyzed FBS, 0.569 µM	113	21.5	98.1
RPMI 5 mM glucose + 10% dialyzed FBS, 1.71 µM	125	29.9	102
RPMI 5 mM glucose + 10% dialyzed FBS, 5.12 µM	121	105	121
RPMI 5 mM glucose + 10% dialyzed FBS, 15.4 µM	127	111	102
RPMI 5 mM glucose + 10% dialyzed FBS, 46.1 µM	128	93.2	124

AUC of viability dose-response curve
Settings	HPLM + 10% dialyzed FBS	RPMI 5 mM glucose + 10% FBS	RPMI 5 mM glucose + 10% dialyzed FBS
[3]	466	451	465
[4]	469	460	449

CCC(C)N(C)C(=O)c1cc2ccccc2c(-c2ccccc2Cl)n1 (stereo not given)
AUC of viability dose-response curve
Settings	[3]	[4]	[5]
HPLM + 10% dialyzed FBS	452	462	461
RPMI 5 mM glucose + 10% FBS	473	471	460
RPMI 5 mM glucose + 10% dialyzed FBS	453	463	464

CCCN[S+](=O)([O-])Nc1ncnc(OCCOc2ncc(Br)cn2)c1-c1ccc(Br)cc1
[2], HPLM + 10% dialyzed FBS
Settings	cell viability [%]
0.000781 µM	125
0.00234 µM	120
0.00702 µM	123
0.0211 µM	120
0.0632 µM	123
0.19 µM	137
0.569 µM	123
1.71 µM	123
5.12 µM	124
15.4 µM	131
46.1 µM	88.8

AUC of viability dose-response curve
Settings	[3]	[4]	[5]
HPLM + 10% dialyzed FBS	442	457	470
RPMI 5 mM glucose + 10% FBS	468	431	468
RPMI 5 mM glucose + 10% dialyzed FBS	468	452	429

COC1=C(OC)C(=O)C(C/C=C(\C)CC/C=C(\C)CC/C=C(\C)CC/C=C(\C)CC/C=C(\C)CC/C=C(\C)CC/C=C(\C)CC/C=C(\C)CC/C=C(\C)CCC=C(C)C)=C(C)C1=O
cell viability [%], [2]
Settings	HPLM + 10% dialyzed FBS	RPMI 5 mM glucose + 10% dialyzed FBS
0.000781 µM	104	104
0.00234 µM	101	129
0.00702 µM	97.5	120
0.0211 µM	92.4	106
0.0632 µM	129	112
0.19 µM	110	124
0.569 µM	60.3	56.4
1.71 µM	53.3	43.4
5.12 µM	138	123
15.4 µM	128	126
46.1 µM	124	120

AUC of viability dose-response curve
Settings	[3]	[4]	[5]
HPLM + 10% dialyzed FBS	461	453	442
RPMI 5 mM glucose + 10% FBS	453	435	469
RPMI 5 mM glucose + 10% dialyzed FBS	466	461	456

C/C=C(/C(=C/C)c1ccc(O)cc1)c1ccc(O)cc1
AUC of viability dose-response curve
Settings	[3]	[4]	[5]
HPLM + 10% dialyzed FBS	464	469	464
RPMI 5 mM glucose + 10% FBS	431	465	467
RPMI 5 mM glucose + 10% dialyzed FBS	457	465	465

Cn1c(CCCC(=O)O)nc2cc(N(CCCl)CCCl)ccc21
AUC of viability dose-response curve
Settings	[3]	[4]	[5]
HPLM + 10% dialyzed FBS	452	438	456
RPMI 5 mM glucose + 10% FBS	441	457	414
RPMI 5 mM glucose + 10% dialyzed FBS	453	451	447
